Converted amounts (≈) assume the structure as drawn.
Compound | log10 vapour pressure (mmHg) | melting point [°C] | ready biodegradability | boiling point [°C] | log10 Koa | log10 biodegradation half-life (days) | log10 Koc (L/kg) | solubility [mM] | log10 Henry constant (atm·m³/mol)
N#Cc1sc2c(=O)c3ccccc3c(=O)c=2sc1C#N | -10.7 | 225 | not readily biodegradable |  |  |  |  |  | 
Cc1nnc2n1-c1sc(Br)cc1C(c1ccccc1Cl)=NC2 |  | 213 |  |  |  |  |  |  | 
C[C@]12CCC(=O)C=C1CC[C@@H]1[C@@H]2C(=O)C[C@@]2(C)[C@H]1CC[C@]2(O)[C@H](O)CO |  | 208 |  |  |  |  |  |  | 
Cc1c(Cl)c(Cl)cc(Cl)c1Cl |  | 93.5 |  |  |  |  |  |  | 
Nc1ccc2ccc3cccc4ccc1c2c34 |  | 116 |  |  |  |  |  |  | 
ClC(Cl)C(Cl)C(Cl)Cl | -0.0278 | -10 | not readily biodegradable | 199 |  |  |  |  | 
COCCOCCOCCOCCOC |  |  |  | 275 |  |  |  |  | 
C[Si]1(c2ccccc2)O[Si](C)(c2ccccc2)O[Si](C)(c2ccccc2)O[Si](C)(c2ccccc2)O1 (stereo not drawn) |  | 99 |  |  |  |  |  |  | 
C=CCC1(CC(C)C)C(=O)NC(=O)NC1=O |  | 138 |  |  |  |  |  |  | 
CCOC(=O)CCCCl |  |  |  | 184 |  |  |  |  | 
Nc1cc(Cl)c(Cl)cc1Cl |  | 96.5 |  | 270 |  |  |  |  | 
Cc1ccnc(-c2cc(C)ccn2)c1 |  | 175 |  |  |  |  |  |  | 
CC1CCCC(C)C1C (stereo not drawn) |  |  |  | 142 |  |  |  |  | 
CCOC(=O)[C@H](CCc1ccccc1)N[C@H]1CCc2ccccc2N(CC(=O)O)C1=O |  | 148 |  |  |  |  |  |  | 
NCC1CCCCC1 |  |  |  | 160 |  |  |  |  | 
Cc1cc(C)nc(NS(=O)(=O)c2ccc(N)cc2)n1 |  | 198 |  |  |  |  |  |  | 
CC12CCC(C(Cl)C1=O)C2(C)C (stereo not drawn) |  | 106 |  |  |  |  |  |  | 
CCCCC(=O)OCCC |  | -70.7 |  | 168 |  |  |  |  | 
CCCCCCCCCCCCCCCCCCCCCCCCCC(=O)O |  | 88.5 |  |  |  |  |  |  | 
COC | 3.65 | -142 | not readily biodegradable | -24.8 | 1.37 |  |  |  | 
CCCCCCCCCCCCCCCCCCCCCCCC | -5.39 | 54 | readily biodegradable | 391 |  | 2.06 |  |  | 

Compound | log10 vapour pressure (mmHg) | melting point [°C] | ready biodegradability | boiling point [°C] | log10 Koa | log10 biodegradation half-life (days) | log10 Koc (L/kg) | solubility [mM] | log10 Henry constant (atm·m³/mol)
Nc1cc(Cl)c(Cl)cc1N |  | 160 |  |  |  |  |  |  | 
CC(N)c1ccccc1 (stereo not drawn) |  |  |  | 185 |  |  |  |  | 
Oc1ccc(C2CCCCC2)cc1 |  | 133 |  | 294 |  |  |  |  | 
Cc1cccc([N+](=O)[O-])c1C | -0.445 | 15 | not readily biodegradable | 240 |  |  |  |  | 
CC(C)N(C(=O)CCl)c1ccccc1 | -3.64 | 77 |  |  |  |  | 2.42 |  | 
O=C(O)C(F)(F)C(F)(F)C(F)(F)C(F)(F)C(=O)O |  | 134 |  |  |  |  |  |  | 
CCCCOCc1ccccc1 |  |  |  | 223 |  |  |  |  | 
ClC=CCCl |  |  | not readily biodegradable |  |  |  |  |  | 
CC(=O)CC(=O)c1ccccc1 |  | 56 | readily biodegradable | 262 |  |  |  |  | 
FCCCCBr |  |  |  | 135 |  |  |  |  | 
CCOC(CN(C)C)OCC |  |  |  | 170 |  |  |  |  | 
CC(=O)Nc1nnc(S(N)(=O)=O)s1 |  | 260 |  |  |  |  |  |  | 
CNc1ccc(NCCO)c2c1C(=O)c1ccccc1C2=O |  | 187 |  |  |  |  |  |  | 
Oc1ccccc1I |  | 43 | not readily biodegradable |  |  |  |  |  | 
N#CSCc1ccccc1 |  | 43 |  | 232 |  |  |  |  | 
O=[N+]([O-])c1c(Cl)ncnc1Cl |  | 102 |  |  |  |  |  |  | 
CC(=O)CCCO |  |  |  | 209 |  |  |  |  | 
C=COCCCC | 1.69 | -92 |  | 94 |  |  |  |  | 
Cc1cccc(C)c1OCC(C)N (stereo not drawn) |  | 204 |  |  |  |  |  |  | 
CCN(CC)C1CCCCC1 |  |  |  | 193 |  |  |  |  | 
CCNC(=O)C(C)OC(=O)Nc1ccccc1 (stereo not drawn) |  | 119 |  |  |  |  |  |  | 

Compound | log10 vapour pressure (mmHg) | melting point [°C] | ready biodegradability | boiling point [°C] | log10 Koa | log10 biodegradation half-life (days) | log10 Koc (L/kg) | solubility [mM] | log10 Henry constant (atm·m³/mol)
CC=CC=C(C)C |  | -74.2 |  | 112 |  |  |  |  | 
CC(=O)Oc1cc(C)c(OC(C)=O)c2ccccc12 |  | 113 |  |  |  |  |  |  | 
O=C(O)/C=C/c1ccccc1 | -4.49 | 133 |  | 300 |  |  |  |  | 
CCOP(=O)(OCC)SCS(=O)CC (stereo not drawn) |  |  |  |  |  |  |  | 30.7 (≈ 8000 µg/mL) | 
FC(F)(I)C(F)(F)I |  |  |  | 112 |  |  |  |  | 
C=CC | 3.94 | -185 |  | -48 |  |  |  |  | -0.708
CC(C)OC(=O)OC(C)C |  |  |  | 147 |  |  |  |  | 
CO[Si](CCCN=C(N(C)C)N(C)C)(OC)OC |  |  | not readily biodegradable |  |  |  |  |  | 
FC(F)(F)C(F)(F)C(F)(F)C(F)(F)C(F)(F)C(F)(F)C(F)(F)C(F)(F)C(F)(F)I |  |  |  | 181 |  |  |  |  | 
CC(C)(C)C(O)C(Oc1ccc(-c2ccccc2)cc1)n1cncn1 (stereo not drawn) |  | 127 |  |  |  |  |  |  | 
Clc1cc(Cl)c(Cl)c(-c2c(Cl)ccc(Cl)c2Cl)c1 |  |  |  |  |  |  |  |  | -4.25
CCOP(=S)(OCC)Oc1ccc(SC)cc1 |  |  |  |  |  |  | 3.18 |  | 
CC(O)COCC(C)O (stereo not drawn) |  |  | not readily biodegradable | 233 |  |  |  |  | 
O=C(O)COc1ccc(Cl)cc1 |  | 164 |  |  |  |  |  |  | 
CC(C)CCC(=O)O |  | -33 |  | 200 |  |  |  |  | 
Cc1cc(C)c(O)c(C)c1 | -1.76 | 73 | not readily biodegradable | 220 |  |  |  |  | 
CCC(CO)O[N+](=O)[O-] (stereo not drawn) |  |  |  |  |  |  |  |  | -6.78
Cc1cccc(CC#N)c1 |  |  |  | 248 |  |  |  |  | 
CC1=C(C)C2CCC1C2 |  |  |  | 140 |  |  |  |  | 
CC1(C)CCCNC1 |  |  |  | 137 |  |  |  |  | 
CCOC(=O)CCCCCCCCC(=O)OCC | -3.29 | 5 |  | 305 |  |  |  |  | 

From the OPERA property sets (Mansouri et al. 2018)
